One assay concerns SW1990. The experiment in a line: CellTiter-Glo Reagent cancer cell line proliferation assay, SW1990. The format is cell-based. The following applies: Homo sapiens; SW1990, KRAS(G12D) homozygous, 24 hr. The text has this: (§1) The following cancer cell lines were employed: • AsPC-1 human pancreatic adenocarcinoma, homozygous KRAS(G12D), (ATCC, #CRL-1682); A-427 human lung carcinoma, heterozygous KRAS(G12D), (ATCC, #HTB-53); AGS human gastric adenocarcinoma, heterozygous KRAS(G12D), (ATCC, #CRL-1739); GP2D human colon adenocarcinoma, heterozygous KRAS(G12D), (Sigma Aldrich, 95090714); SW1990 human pancreatic adenocarcinoma, homozygous KRAS(G12D), (ATCC, #CRL2172); LU65A human lung giant cell carcinoma, heterozygous KRAS(G12C), (JCRB Cell Bank, #JCRB0054); NCIH727 human lung carcinoid, heterozygous KRAS(G12V), (ATCC, #CRL-5815); MKN1 human gastric adenosquamous carcinoma KRAS (wt), (JCRB Cell Bank, #JCRB0252). Cell lines were cultured according to ATCC, JCRB and Sigma Aldrich recommendations.
(§2) Cells were plated in 96-well tissue culture plates at 4,000 cells/well and incubated at 37° C./5% CO2 for 24 hr in 100 μl of media. 3-fold serial dilutions of each test compound were prepared ranging from 20 μM to 1.02 nM. Cells were then treated with test compounds at various concentrations with a final concentration of 0.5% DMSO/well, and then incubated at 37° C./5% CO2 for 24 hr. 100 μl of CellTiter-Glo® Reagent (Promega Corporation, Madison, WI) was added to each well and processed according manufacturer's protocol. Results were analyzed and IC50-values were calculated in GraphPad 7 software.
In general terms: ATP-based viability assays read luminescence as a measure of living cells.

The target in a further assay is KRAS(G12D) (Homo sapiens, UniProt P01116, G12D). The experiment in a line: cell-based. In kind it is cell-based. Details: Cell lines SW1990 and GP2D that express KRAS(G12D); host or cells: SW1990. Particulars: for Dmax: SW1990, read-out: WB data SW1990 DMax; for DC50: read-out: WB data SW1990 DC50, SW1990, KRAS degradation, 24 hr. A digest of the protocol:
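Cancer cell lines treated with compound, lysed in RIPA with protease/phosphatase inhibitors, and protein-normalized lysates resolved by SDS-PAGE and western blotted with anti-KRAS and anti-β-actin. Fluorescence imaging quantified KRAS levels; DC50 and DCmax derived from concentration-response fits.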

The next assay has as its system ASPC-1. The experiment in a line: CellTiter-Glo Reagent cancer cell line proliferation assay, ASPC-1. The following applies: Homo sapiens, ASPC1; ASPC-1, KRAS(G12D) homozygous, 24 hr. The format is cell-based.
From the text: as §1, §2

For a further assay, the target named is T1, KRAS(G12D)/SOS1 (Homo sapiens, UniProt P01116, G12D).
T1 construct: purchased Cisbio 63ADK000CB16PEG
The experiment in a line: KRAS(G12D)/SOS1 Homogeneous Time-Resolved Fluorescence (HTRF) Assay. The format is binding. Particulars: absence of GTP, 4° C., 3 hr. As for the experimental part: 3-fold serial dilutions of each test compound were prepared ranging from 20 μM to 1.02 nM. The test compound was mixed and incubated with reaction components, incubated in a sealed plate at 4° C. for 3 hr and fluorescence was measured using a PerkinElmer Envision plate reader. The % inhibition and IC50 values (the concentration at which 50% of the maximal inhibition occurs) were calculated and plotted using GraphPad Prism 7 software.
For orientation: Time-resolved FRET reads energy transfer from a long-lived donor to a nearby acceptor.

Another assay has as its system GP2D. The experiment in a line: CellTiter-Glo Reagent cancer cell line proliferation assay, GP2D. In kind it is cell-based. The following applies: Homo sapiens, KRAS(G12D) heterozygous, 24 hr. A digest of the protocol:
(§3)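 Cells were seeded at 4,000 per well, grown 24 hr at 37° C./5% CO2, then exposed 24 hr to 3-fold dilutions from 20 μM to 1.02 nM (0.5% DMSO final). Viability was read with CellTiter-Glo luminescence, and IC50 values were calculated.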

Another assay concerns A427. The experiment in a line: CellTiter-Glo Reagent cancer cell line proliferation assay, A427. In kind it is cell-based. Particulars: Homo sapiens, A-427; A427, KRAS(G12D) heterozygous, 24 hr.
From the text: as §1, §2

Another assay concerns AGS. The experiment in a line: CellTiter-Glo Reagent cancer cell line proliferation assay, AGS. The format is cell-based, human. Particulars: Homo sapiens, 24 h, KRAS(G12D) heterozygous. A digest of the protocol: as §3

Structures are written as SMILES. Some results are limits rather than exact numbers.

Sequence of KRAS(G12D) (P01116 1-188 isoform P01116-2 G12D): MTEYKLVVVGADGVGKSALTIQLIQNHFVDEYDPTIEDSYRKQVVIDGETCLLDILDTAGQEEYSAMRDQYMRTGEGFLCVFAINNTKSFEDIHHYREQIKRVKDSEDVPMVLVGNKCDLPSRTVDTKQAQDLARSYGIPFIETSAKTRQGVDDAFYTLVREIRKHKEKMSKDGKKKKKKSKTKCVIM
T1 sequence (P01116 1-188 isoform P01116-2 G12D): as above

As a reminder, the IC50 is the midpoint of a concentration-inhibition curve. For orientation: DC50 means the concentration giving 50% degradation. Regarding `C#Cc1c(F)ccc2cc(O)cc(-c3ncc4c(N5CC6CCC(C5)N6)nc(OCC5(CN6CCN(CC7CCN(c8ccc9c(c8)CN(C8CCC(=O)NC8=O)C9=O)CC7)CC6)CC5)nc4c3F)c12` (centres unmarked) [Compound 43], the IC50 with SW1990, in the assay with ASPC-1, against KRAS(G12D)/SOS1, in the assay with GP2D, in the assay with A427 and in the assay on AGS was under 100 nM in each case. The Dmax on KRAS(G12D) is over 50%. Further, at KRAS(G12D), the DC50 is under 100 nM.

For the molecule `C#Cc1cccc2cc(O)cc(-c3ncc4c(N5CC6CCC(C5)N6)nc(OCC5(CN6CCN(CC7CCN(c8ccc9c(c8)C(=O)N(C8CCC(=O)N(C)C8=O)C9=O)CC7)CC6)CC5)nc4c3F)c12` (centres unmarked) [Compound 42], the IC50 in the assay with SW1990 is 100 to 1000 nM; on KRAS(G12D)/SOS1, under 100 nM; with A427, 100 to 1000 nM; in the assay on AGS it was under 100 nM. Besides, the Dmax on KRAS(G12D) lay within 10 to 50%. For the same molecule, at KRAS(G12D), the DC50 was over 1000 nM.

Regarding `COc1nc(-c2cc(O)cc3ccccc23)c(F)c2nc(OCC3(CN4CCN(CC5CCN(c6ccc7c(c6)C(=O)N(C6CCC(=O)NC6=O)C7=O)CC5)CC4)CC3)nc(C3CC4CCC(C3)N4)c12` (centres unmarked) [Compound 36], the concentration for half-maximal inhibition (IC50) in the assay with SW1990 is 100 to 1000 nM; in the assay on ASPC-1 it was 100 to 1000 nM; against KRAS(G12D)/SOS1 it was under 100 nM; in the assay with A427, 100 to 1000 nM; with AGS, 100 to 1000 nM.

`CN1C[C@H](N2CCC(C(=O)NCCOc3ccc4c(c3)C(=O)N(C3CCC(=O)NC3=O)C4=O)CC2)C[C@@H]1COc1nc(N2CC3CCC(C2)N3)c2cnc(-c3cc(O)cc4ccccc34)c(F)c2n1` (some centres unmarked) [Compound 23]: the IC50 against KRAS(G12D)/SOS1 is under 100 nM; with A427 it was over 1000 nM; in the assay with AGS it was over 1000 nM.

On to `C#Cc1cccc2cc(O)cc(-c3ncc4c(N5CC6CCC(C5)N6)nc(OCC5(CN6CCN(CC7CCN(c8ccc9c(c8)n(C)c(=O)n9C8CCC(=O)NC8=O)CC7)CC6)CC5)nc4c3F)c12` (centres unmarked) [Compound 64], for which the IC50 in the assay on SW1990 was under 100 nM; in the assay on ASPC-1 it was under 100 nM; against KRAS(G12D)/SOS1, under 100 nM; in the assay on GP2D it was under 100 nM; in the assay with A427, 100 to 1000 nM; with AGS, under 100 nM. Also, the Dmax at KRAS(G12D) was over 50%. The DC50 at KRAS(G12D) is under 100 nM.

For `C#Cc1c(F)ccc2cc(O)cc(-c3nc(OC)c4c(N5CC6CCC(C5)N6C(=O)C(F)(F)F)nc(OCC5(CN6CCC(CN7CCN(c8ccc9c(c8)CN(C8CCC(=O)NC8=O)C9=O)CC7)CC6)CC5)nc4c3F)c12` (centres unmarked) [Compound 63], the IC50 in the assay on SW1990 was 100 to 1000 nM; in the assay on ASPC-1, 100 to 1000 nM; against KRAS(G12D)/SOS1, under 100 nM; in the assay on GP2D, under 100 nM; with A427, over 1000 nM; in the assay on AGS, under 100 nM. Also, at KRAS(G12D), the Dmax lay within 10 to 50%. Also, the DC50 on KRAS(G12D) fell in the range of 100 to 1000 nM.

The values are drawn from patent US20260325654A1, “METHODS AND COMPOSITIONS FOR TARGETED PROTEIN DEGRADATION” (Ranok Therapeutics (Hangzhou) Co. Ltd., priority 2023, published 2026).
